Values of other authors in patent US20250143325A1, “PLANT-BASED INSECT REPELLENT AND USES THEREOF” (PIC Corporation, priority 2023, published 2025).

Columns and labels:
[1] = test system: storage food mite, Tyrophagus putrescentiae; details: impregnated fabric disc bioassay against Tyrophagus putrescentiae
[2] = test system: Periplaneta americana (the American Cockroach) and Blaberus discoidalis (discoids)

Row | Compound | 50% lethal dose value [1] [g/mL] | concentration abolishing spontaneous foregut contractions (together with response to electrical stimulation) ([2]; foregut) [mM] | threshold for increased spontaneous firing (abdominal nerve cord) ([2]; lower doses, impulses recorded extracellularly) [µM]
1 | O=C(OCc1ccccc1)c1ccccc1 [benzyl benzoate] | 1.27 | – | –
2 | CC(C)=CCC/C(C)=C/CO [geraniol] | 1.95 | 2 | 250
